The data set in a line: Dissolution in polyethylene glycol 400 (appearance of solution, microscope). To be noted: 20 mg phospholipid DHGPC in 1 ml polyethylene glycol 400, 21° C. The format is physicochemical. From the text: Polyethylene glycol 400 served as solvent. […] This was confirmed under a microscope.
Microscope images confirmed this.

Consider 1 molecule from patent US9700509B2, “Solutions of lipophilic substances, especially medicinal solutions” (UNIVERSITÄT REGENSBURG, priority 2008, dated 2017).

Regarding `CCCCCCC(=O)OC[C@H](COP(=O)([O-])OCC[N+](C)(C)C)OC(=O)CCCCCC` [DHGPC, diheptanoyl glycerophosphocholine], the appearance of solution entry is on record as “clear solution”.
